Results reported in article PMC10510102, “Efficient Ligand Discovery Using Sulfur(VI) Fluoride Reactive Fragments” (ACS Chemical Biology, 2023).
Values joined by “and” are separate entries in the source; they are usually repeats but may differ in a detail not shown here. Identical values can stand only once. “Also recorded” adds a separate entry of the source.

Legend:
[1] = target: T1, CAII (Homo sapiens, UniProt P00918); assay: Single shot screen of chemoproteomic probes, intact protein LC-MS; type: binding; set-up: purchased Sigma Aldrich C6624-500UG; host or cells: E. coli; details: 1 μM CAII, 50 μM SF, 4 °C, 24 h
Excerpt: Hits from the CAII screen were progressed to chemoproteomic profiling to determine cellular target engagement and to measure their off-target profiles. SFs 2d and 2e were functionalized with an alkyne handle at the linking amide group to give probes 2j and 2k. A structurally similar negative control was also designed by substitution of the sulfonamide for a methoxy group, 2l (Figure 4a). […] The proteins engaged by these three probes were subsequently studied in HEK293T cells. […]
6.1. Single shot screen of chemoproteomic probes against CAII
The (synthesized and purified) active probes 2j, and 2k, as well as negative control 2l, were plated into a Greiner 384 white low volume plate from a 10 mM source in DMSO. Purified CAII diluted from original stock into a buffer made up of HEPES (pH 7.5, 25 mM) and NaCl (50 mM) in distilled MS-grade water (15 µL per well) was subsequently added across the plate. Final concentrations: 1 µM protein; 50 µM SF. The plate was sealed, centrifuged (1 min, 1000 rpm), incubated at 4 °C for 24 h, and subsequently analyzed by intact protein LC-MS. Modification yields were measured as 78% for 2j and 95% for 2k.
6.2. Chemoproteomics workflow […]
Chemoproteomics workflow: […]
Samples were incubated with acetylated NeutrAvidin agarose slurry (100 µL) (pre-washed three times with 0.2% SDS in HEPES (50 mM, pH 8.0)) on a combinatorial microlute plate (Porvair, 240002) for 2 h. The plate was centrifuged (1 min, 700 g) to remove supernatants.
The beads were washed three times with lysis buffer and 0.2% SDS in HEPES (50 mM, pH 8.0). The proteins were digested on-bead overnight at 37 °C with LysC (60 μL, 0.004 μg/μL) in HEPES (50 mM, pH 8.0). The supernatants were collected (1 min, 700 g) on a fresh plate and trypsin (30 μL, 0.006 μg/μL) in HEPES (50 mM, pH 8.0) was added to each sample. The samples were incubated for 4 h at 37 °C and acidified with 20% formic acid (10 μL).
The peptide samples were cleaned-up using C18 96-well plate (BioPureSPE Macro 96-Well, 100 mg PROTO C18, The Nest Group). The wells were conditioned with acetonitrile (300 μL) (centrifuged for 1 min at 50 g) and equilibrated twice with 0.1% TFA (300 μL) (centrifuged for 1 min at 150 g). 0.1% TFA (100 μL) was added to digest samples, and these were subsequently loaded on the plate (centrifuged for 1 min at 150 g). The samples were washed twice with 0.1% TFA (200 μL) (centrifuged for 1 min at 150 g). The plate was centrifuged once more at 200 g for 1 min. The peptides were eluted in two steps with 0.1% TFA (150 μL) in 50% acetonitrile

[2] = tested on: HEK293T cells; assay: Chemoproteomic profiling, proteins enriched by alkyne probes; type: cell-based, human; details: 10 μM probe, 1 h; log2 ratio ≥0.58, p-value ≤0.05, #unique peptides ≥2
Procedure: (§1) HEK293T cells were treated for 1 h with probes 2j, 2k, or 2l (10 μM) or the DMSO vehicle. Competition-based experiments were also conducted where cells were pretreated with parent hits 2d (40 μM) or 2e (40 μM) for 1 h, before the addition of alkyne-containing probes 2j (10 μM) or 2k (10 μM), respectively. Following incubation, treated cells were lysed and conjugated with biotin-azide by Cu-click, and biotinylated proteins were enriched using NeutrAvidin beads. Enriched proteins were digested with LysC and trypsin, prior to analysis by LC–MS/MS (Figure 4b). […]
(§2) 6.2. Chemoproteomics workflow
(§3) Acetylation of NeutrAvidin agarose slurry:
NeutrAvidin agarose slurry (10 mL) (Thermo Fisher Scientific, 29204) was centrifuged (2 min, 2000 rpm) prior to removal of the supernatant. The beads were washed three times with PBS. PBS (9 mL) and Sulfo-NHS-acetate (482 μL, 400 mM in DMSO) (Thermo Fisher Scientific, 26777) were added, the beads were incubated at room temperature for 30 min on a falcon tube roller, and then centrifuged (2 min, 2000 rpm). Supernatant was removed and the incubation step with freshly made NHS-acetate was repeated. The reaction was quenched by adding Tris (2 mL, 1 M, pH 7.5). The beads were washed once with PBS and twice with 20% EtOH. 20% EtOH (5 mL) was added, and the beads were stored at 4 °C.
Chemoproteomics workflow:
HEK293T cell line (human origin, The Francis Crick Institute cell service) was used for this study. The cells were maintained at 37 °C with 5% CO2 in DMEM media supplemented with 10% fetal bovine serum and 1% L-Glutamine–Penicillin–Streptomycin solution (200 mM L-glutamine, 10,000 U/mL penicillin and 10 mg/mL streptomycin).
HEK293T cells were treated in triplicate with the parent compounds 2d and 2e (40 μM final concentration) or DMSO vehicle for 1 h at 37 °C in serum free media followed by a 1 h treatment with the probes 2j, 2k and 2l (10 μM final concentration) or DMSO vehicle.
(§4) Media was removed and cells were washed with PBS. […] Protein concentration of each lysate was determined using a BCA assay (Thermo Fisher Scientific, 23227). […]

[3] = target: BCL6 BTB/POZ domain (Homo sapiens, UniProt P41182, C67R/C84N/C8Q); assay: Conventional differential scanning fluorimetry (DSF); type: binding; set-up: hBCL6-Flag 3Cmut (5-129) produced in house; FLAG (C); made in house
Procedure: We subsequently analyzed protein-fragment interactions using differential scanning fluorimetry (DSF) to explore the impact of these binding events on protein stability.[45] […] […]; this illustrates the impact of covalent modification on protein–ligand binding. […]
8.2. Conventional differential scanning fluorimetry (DSF)
BCL6-SF covalent complex preparation:
SFs 2f–i, 2p, 2q, 2s, and 2t in DMSO-d 6 (200 mM stock) or pure DMSO-d 6 were added to crystallizable BCL6 BTB/POZ domain (10 µM) in 20 mM Tris pH 8.5 and 200 mM NaCl. The reactions were incubated at 20 °C for 6 h (meta-substituted benzamide fragments) or 24 h (azetidinyl/piperidinyl fragments). Final concentrations: 10 µM protein, 500 µM SF, DMSO 0.25% v/v in 200 µL. Unreacted compound and DMSO-d 6 were removed by buffer-exchanging protein solutions into 20 mM Tris pH 8.5, 200 mM NaCl and 5% v/v glycerol inside Vivaspin 500 PES Centrifugal Concentration units. The protein was concentrated to 0.6–1.3 mg/mL within the units, according to UV-vis absorption spectrophotometry via a Nanodrop ND-1000 instrument. Protein was flash frozen using a dry ice/ethanol bath prior to […]
Differential scanning fluorimetry assay:
GSK137 (40 mM stock) or pure DMSO-d 6 were added to crystallizable BCL6 BTB/POZ domain (11 µM) in 20 mM Tris pH 8.5, 200 mM NaCl and 5% v/v glycerol to give solutions containing: 11 µM protein, DMSO 0.63% v/v and 222 µM GSK137 (where applicable).
Concentrated protein-SF complexes were also thawed and diluted to 11 µM in 20 mM Tris pH 8.5, […] and 5% v/v glycerol.
SYPRO Orange dye (Invitrogen S6650) in extra dilution buffer (50×, eq. 1% v/v DMSO) was added to give assay-ready solutions with final concentrations: 10 µM protein, SYPRO 5×, DMSO 0.1% v/v in volume 80 µL for the protein-SF covalent complexes or 10 µM protein, SYPRO 5×, DMSO 0.6% v/v in volume 100 µL with and without 200 µM GSK137.
Each solution was aliquoted (3 × 20 µL) into wells of an opaque 384-well PCR microplate (Axygen PCR-384-LC480-W) and coated with silicone oil DC 200 (5 µL; Fluka Chemicals 85413). The microplate was centrifuged (1 min, 200 g) prior to insertion into a Fluodia T70 spectrophotometer (Photal Instruments). The fluorescence intensity was detected (emission wavelength: […]) as the plate instrument interior was heated from 27–75 °C using a temperature stepping mode (waiting time before measurement: 60 s; fluorescence measurement interval: 45 s). The approximate temperature gradient was 0.5 °C min-1.
The fluorescence intensity data from the individual replicates of each sample type were normalized and identically truncated within GraphPad Prism 5.0.4.11 These values were subsequently fitted to equation (4) corresponding to a Boltzmann sigmoid in order to obtain the melting temperature (“V50”; T m) of the protein:
Y=BOTTOM+((TOP+BOTTOM)/(1+exp((V50–X)/SLOPE))) (4)
The three obtained T m values were averaged to give a final T m value in each case. The normalized fluorescence data for the three replicates of each sample were averaged to yield a single dataset for each case, which were then plotted in GraphPad Prism 5.0.4 to give the plots shown in the manuscript.11
Table S9. Thermal melting temperatures of unmodified and covalently modified BCL6 BTB/POZ domain as determined by differential scanning fluorimetry measurements.
The arithmetic mean and standard deviation from three replicates are shown.
Hit Chemotype Protein Species Tm / °C ΔT m / °C […]
meta-Substituted Benzamide BCL6 + 2g 70.4 ± 0.3 +11.7
Azetidinyl Fragments BCL6 + 2h 55.5 ± 0.1 −3.2 […]
8.3. Protocol for kinetic analyzes (BCL6)
The (resynthesized and purified) SF hits (2f–i) were plated into seven Greiner 384 white low volume plate from a 10 mM source in DMSO. Differing volumes were added such that the final concentrations for each compound would be: 100, 50, 20, 10, or 5 µM after adding 15 µL of protein stock solution per well. […]

[4] = tested on: BCL6; set-up: method as in PMID 34274316; details: cited from earlier work
[5] = target: T1, CAII; assay: Chemoproteomic target engagement of CAII in cells; type: cell-based; details: HEK293T cells, 10 μM probe, 1 h, vs DMSO
Procedure: as §1, §2, §3
NeutrAvidin agarose slurry (10 mL) (Thermo Fisher Scientific, 29204) was centrifuged (2 min, 2000 rpm) prior to removal of the supernatant. The beads were washed three times with PBS. PBS (9 mL) and Sulfo-NHS-acetate (482 μL, 400 mM in DMSO) (Thermo Fisher Scientific, 26777) were added, the beads were incubated at room temperature for 30 min on a falcon tube roller, and then centrifuged (2 min, 2000 rpm). Supernatant was removed and the incubation step with freshly made NHS-acetate was repeated. The reaction was quenched by adding Tris (2 mL, 1 M, pH 7.5). […]
as §4

SMILES | covalent modification of purified CAII [1] | number of proteins enriched by comparison to DMSO control [2] | Tm ([3]; 10 μM protein, covalent complex (500 μM SF, 6 or 24 h) or 200 μM GSK137, mean ± SD, three replicates) [°C] | ΔTm ([3]; relative to unmodified BCL6) | biochemical pIC50 [4] | enrichment of CAII [5] | modification yield [1] [%]
C#CCN(Cc1cccc(OC)c1)C(=O)Cc1ccc(S(=O)(=O)F)cc1 [2l] | Negligible modification; also recorded: did not | 447 |  |  |  |  | 
Cc1ncccc1[C@H]1C[C@@H](c2cccc3nc(N)ccc23)Nc2c(F)cnn21 [GSK137, reference compound] |  |  | > 72 | > 12.3 °C and ~12 °C | 8 |  | 
C#CCN(Cc1cccc(S(N)(=O)=O)c1)C(=O)Cc1ccc(S(=O)(=O)F)cc1 [2j] | covalently modified CAII | 523 |  |  |  | some enrichment | 78
C#CCN(CCc1ccc(S(N)(=O)=O)cc1)C(=O)Cc1ccc(S(=O)(=O)F)cc1 [2k] | covalently modified CAII | 501 |  |  |  | some enrichment | 95
